# Species on record: Cavia porcellus
# Test: Inhibition of histamine-inducedcontraction of the isolated guinea-pig ileum
# Assay type: functional
# Settings: read-out: pA2 (converted)
structure (smiles),measurement,value
CC(C)(C)c1ccc([C@@H](O)CCCN2CCC(C(O)(c3ccccc3)c3ccccc3)CC2)cc1,Kb,19.1 nM
CC(C)(C)c1ccc([C@H](O)CCCN2CCC(C(O)(c3ccccc3)c3ccccc3)CC2)cc1 [R-TERFENADINE],Kb,24.5 nM
CC(C)(C)c1ccc(C(O)CCCN2CCC(C(O)(c3ccccc3)c3ccccc3)CC2)cc1 (stereo not drawn) [TERFENADINE],Kb,22.4 nM

# Reference: ChEMBL document CHEMBL1125997 (Bioorg Med Chem Lett, 1991)
